Here are results for 15 molecules from patent US20090143279A1 (priority 2007, published 2009).

Where two headings read alike, the source gives them in different places.

One experiment relates to mtOXPHOS transcripts. In kind it is cell-based, mouse.
Another experiment deals with OXPHOS gene expression. In kind it is cell-based, mouse.
The next experiment concerns reactive oxygen species. The experiment is classed as cell-based, mouse.
Experiment [1] relates to cellular dehydrogenase activity.
Experiment [2] concerns mitochondrial membrane potential. The experiment is classed as cell-based, mouse.
Another experiment deals with cytochrome c. The experiment is classed as cell-based, mouse.
Another experiment relates to nuOXPHOS transcripts. In kind it is cell-based, mouse.
Where [3] appears, read: normalized composite Z-score vs mock-treated (DMSO) wells, Conc 20 μM.
[4] abbreviates: composite Z-score vs DMSO wells, Conc 20 μM.
The mark [5] stands for this setting: composite Z-score vs DMSO, Conc 20 μM.
The mark [6] stands for this setting: 20 μM, composite Z-score vs DMSO.
Where [7] appears, read: Conc 13.32 μM, normalized score vs mock-treated (DMSO) wells.

`CN[C@@H](Cc1c[nH]c2ccccc12)C(=O)O` [abrine]: the “mitoOX (composite Z-score)” value in the experiment with mtOXPHOS transcripts was determined as 0.383. Also, the “GE-HTS (composite Z-score)” value with OXPHOS gene expression came out at 0.459. Moreover, the “ROS (composite Z-score)” value in the experiment on reactive oxygen species came to 1.698. In addition, in experiment [1], the “MTT (composite Z-score)” value was −1.203. In addition, in the experiment on C2C12 myotubes, the “Viability (composite Z-score)” value worked out at 0.206. Also, in experiment [2], the “ΔΨm (composite Z-score)” value is given as −0.332. Also, the “cyt c (composite Z-score)” value with cytochrome c is recorded as −0.094. The “nucOX (composite Z-score)” value in the experiment on nuOXPHOS transcripts is given as 0.430.
`CC1=CC(=O)CC(C)(C)[C@@]1(O)/C=C/C(C)=C\C(=O)O` [abscisic acid]: in the experiment on mtOXPHOS transcripts (setting [3]), the mitoOX turned out to be 0.299. Moreover, the GE-HTS with OXPHOS gene expression (setting [3]) is on record as 0.469. The ROS in the experiment with reactive oxygen species (setting [3]) was −0.476. The same molecule displayed an MTT in experiment [1] (setting [3]) of −1.053. Moreover, the Viability in the experiment on C2C12 myotubes (setting [3]) stood at 0.309. Besides, the ΔΨm in experiment [2] (setting [3]) is reported as −0.565. For the same molecule, in the experiment with cytochrome c (setting [3]), the cyt c is reported as 0.179. This molecule registered a nucOX in the experiment with nuOXPHOS transcripts (setting [3]) of 0.509.
Regarding `CCCC(=O)Nc1ccc(OCC(O)CNC(C)C)c(C(C)=O)c1` (stereo not shown) [acebutolol], the mitoOX in the experiment on mtOXPHOS transcripts (setting [4]) is −0.254. In the experiment with OXPHOS gene expression (setting [4]), this molecule had a GE-HTS of −0.511. In addition, the ROS in the experiment on reactive oxygen species (setting [4]) worked out at 1.061. In addition, the MTT in experiment [1] (setting [4]) is listed as −0.548. In the experiment on C2C12 myotubes (setting [4]), the Viability is −0.271. In addition, the ΔΨm in experiment [2] (setting [4]) is on record as 0.016. Also, the values for the cyt c with cytochrome c and in the experiment on cytochrome c (setting [4]) were −0.884 and 0.214, respectively. The molecule also showed a nucOX in the experiment with nuOXPHOS transcripts (setting [4]) of −0.591.
Consider `CC(=O)Nc1ccc(OC(=O)c2ccccc2O)cc1` [acetaminosalol], for which the mitoOX in the experiment with mtOXPHOS transcripts (setting [4]) is −0.060. This molecule had a GE-HTS with OXPHOS gene expression (setting [4]) of 0.083. For the same molecule, the ROS in the experiment with reactive oxygen species (setting [4]) was 0.308. Moreover, the MTT in experiment [1] (setting [4]) is on record as −0.142. Besides, in the experiment with C2C12 myotubes (setting [4]), the Viability is 0.144. For the same molecule, the ΔΨm in experiment [2] (setting [4]) is on record as −0.707. The same molecule had a cyt c in the experiment with cytochrome c (setting [4]) of 0.465. Further, the nucOX in the experiment on nuOXPHOS transcripts (setting [4]) was 0.145.
Take `COc1cc(C(C)=O)cc(OC)c1O` [acetosyringone]: the mitoOX in the experiment on mtOXPHOS transcripts (setting [5]) amounted to 0.201. The same molecule yielded a GE-HTS with OXPHOS gene expression (setting [5]) of 0.029. In the experiment with reactive oxygen species (setting [5]), this molecule came in with an ROS of 0.269. The molecule also yielded an MTT in experiment [1] (setting [5]) of −1.266. The molecule also returned a Viability with C2C12 myotubes (setting [5]) of −0.432. Also, the ΔΨm in experiment [2] (setting [5]) is −0.370. This molecule also returned a cyt c in the experiment on cytochrome c (setting [5]) of 0.310. In the experiment with nuOXPHOS transcripts (setting [5]), the nucOX was −0.040.
On to `CC(=O)Nc1c(I)cc(I)c(C(=O)O)c1I` [acetriazoic acid], for which, in the experiment on mtOXPHOS transcripts (setting [5]), the mitoOX is reported as −0.320. This molecule also had a GE-HTS with OXPHOS gene expression (setting [5]) of −0.710. The ROS in the experiment with reactive oxygen species (setting [5]) is 1.158. The molecule also displayed an MTT in experiment [1] (setting [5]) of −0.938. This molecule gave a Viability in the experiment with C2C12 myotubes (setting [5]) of 0.205. Further, the ΔΨm in experiment [2] (setting [5]) was −0.059. The molecule further displayed a cyt c with cytochrome c (setting [5]) of −1.416. Besides, the nucOX in the experiment with nuOXPHOS transcripts (setting [5]) is on record as −0.870.
As to `CC(=O)N[C@@H](CC(C)C)C(=O)O` [acetyl-L-leucine], in the experiment on mtOXPHOS transcripts (setting [4]), the mitoOX is given as 0.088. In the experiment on OXPHOS gene expression (setting [4]), this molecule registered a GE-HTS of 0.328. In the experiment with reactive oxygen species (setting [4]), this molecule gave an ROS of 1.139. For the same molecule, in experiment [1] (setting [4]), the MTT is −0.804. In addition, the Viability in the experiment with C2C12 myotubes (setting [4]) was −0.465. This molecule had a ΔΨm in experiment [2] (setting [4]) of −0.575. Also, the cyt c in the experiment with cytochrome c (setting [4]) amounted to 0.267. The molecule also had a nucOX with nuOXPHOS transcripts (setting [4]) of 0.438.
In the experiment with mtOXPHOS transcripts (setting [4]), `CC(=O)O[C@H](CC(=O)[O-])C[N+](C)(C)C` [acetylcarnitine] returned a mitoOX of −0.943. This molecule came in with a GE-HTS in the experiment with OXPHOS gene expression (setting [4]) of −1.051. Moreover, the ROS with reactive oxygen species (setting [4]) amounted to 0.476. The MTT in experiment [1] (setting [4]) is on record as −1.275. The same molecule had a Viability in the experiment on C2C12 myotubes (setting [4]) of −0.980. Besides, in experiment [2] (setting [4]), the ΔΨm is −0.930. In addition, the cyt c in the experiment with cytochrome c (setting [4]) is −0.192. In the experiment with nuOXPHOS transcripts (setting [4]), this molecule returned a nucOX of −1.015.
For `CC(=O)OCC[N+](C)(C)C` [acetylcholine], the mitoOX in the experiment with mtOXPHOS transcripts (setting [6]) was 0.014. The GE-HTS in the experiment with OXPHOS gene expression (setting [6]) is recorded as 0.358. This molecule also came in with an ROS in the experiment with reactive oxygen species (setting [6]) of 0.622. The molecule also registered an MTT in experiment [1] (setting [6]) of −0.712. Moreover, in the experiment on C2C12 myotubes (setting [6]), the Viability is recorded as −0.299. This molecule gave a ΔΨm in experiment [2] (setting [6]) of −0.520. For the same molecule, the cyt c in the experiment on cytochrome c (setting [6]) is reported as −0.038. The nucOX in the experiment on nuOXPHOS transcripts (setting [6]) was found to be 0.533.
Regarding `CC(=O)Oc1ccccc1C(=O)Oc1ccccc1C(=O)O` [acetylsalicylsalicylic acid], the “mitoOX (composite Z-score)” value in the experiment with mtOXPHOS transcripts (setting [7]) is recorded as −0.389. Also, the “GE-HTS (composite Z-score)” value with OXPHOS gene expression (setting [7]) was −0.301. The “ROS (composite Z-score)” value in the experiment with reactive oxygen species (setting [7]) is reported as 0.399. For the same molecule, the “MTT (composite Z-score)” value in experiment [1] (setting [7]) is given as −1.621. Moreover, the “Viability (composite Z-score)” value in the experiment with C2C12 myotubes (setting [7]) is listed as −0.840. In experiment [2] (setting [7]), the “ΔΨm (composite Z-score)” value was −0.808. Further, in the experiment on cytochrome c (setting [7]), the “cyt c (composite Z-score)” value was −0.200. Further, the “nucOX (composite Z-score)” value in the experiment with nuOXPHOS transcripts (setting [7]) is reported as −0.249.
Take `CCN1C[C@]2(COC)[C@H](O)C[C@H](OC)[C@@]34[C@@H]5C[C@@]6(O)[C@H](OC(=O)c7ccccc7)[C@@H]5[C@@](OC(C)=O)([C@@H]([C@H](OC)[C@H]23)[C@@H]14)[C@@H](O)[C@@H]6OC` [aconitine]: the mitoOX in the experiment on mtOXPHOS transcripts (setting [5]) is −0.198. The GE-HTS in the experiment with OXPHOS gene expression (setting [5]) was determined as 0.169. The molecule further came in with an ROS in the experiment with reactive oxygen species (setting [5]) of 1.038. Besides, the MTT in experiment [1] (setting [5]) is −0.584. The Viability in the experiment with C2C12 myotubes (setting [5]) is recorded as 0.132. In experiment [2] (setting [5]), this molecule displayed a ΔΨm of −0.073. The cyt c worked out at 0.751 in the experiment with cytochrome c (setting [5]) and 1.609 in the experiment with cytochrome c (composite Z-score vs mock-treated (DMSO) wells, concentration of each compound in μM). The nucOX in the experiment on nuOXPHOS transcripts (setting [5]) was determined as 0.356.
Molecule `CC[C@@]1(O)C[C@H](O[C@H]2C[C@H](N(C)C)[C@H](O)[C@H](C)O2)c2c(cc3c(c2O)C(=O)c2c(O)cccc2C3=O)[C@H]1C(=O)OC` [aklavine] yielded a mitoOX with mtOXPHOS transcripts (setting [4]) of 1.063. Further, the GE-HTS in the experiment with OXPHOS gene expression (setting [4]) is given as 0.706. The ROS in the experiment on reactive oxygen species (setting [4]) is on record as −2.347. For the same molecule, the MTT in experiment [1] (setting [4]) is on record as −6.213. This molecule also yielded a Viability in the experiment with C2C12 myotubes (setting [4]) of −2.971. This molecule also had a ΔΨm in experiment [2] (setting [4]) of −3.626. The same molecule yielded a cyt c with cytochrome c (setting [4]) of −5.658. Besides, the nucOX in the experiment with nuOXPHOS transcripts (setting [4]) was 0.430.
`NC(=O)c1ccc([N+](=O)[O-])cc1Cl` [aklomide]: the mitoOX with mtOXPHOS transcripts (setting [4]) is recorded as −0.136. The GE-HTS with OXPHOS gene expression (setting [4]) was found to be 0.378. Besides, the ROS in the experiment on reactive oxygen species (setting [4]) is 0.061. In experiment [1] (setting [4]), this molecule had an MTT of 1.426. This molecule also came in with a Viability in the experiment on C2C12 myotubes (setting [4]) of 0.408. For the same molecule, the ΔΨm in experiment [2] (setting [4]) was −0.447. For the same molecule, the cyt c in the experiment on cytochrome c (setting [4]) amounted to 0.510. Moreover, in the experiment on nuOXPHOS transcripts (setting [4]), the nucOX is recorded as 0.594.
As to `CCCCC(CC)CNC(=N)NC(=N)NCCCCCCNC(=N)NC(=N)NCC(CC)CCCC` (stereo not shown) [alexidine], the figures for the mitoOX in the experiment on mtOXPHOS transcripts and with mtOXPHOS transcripts (setting [6]) were −2.011 and −0.150, respectively. Moreover, the values for the GE-HTS in the experiment with OXPHOS gene expression and in the experiment on OXPHOS gene expression (setting [6]) were −1.696 and −0.288, respectively. The results for the ROS in the experiment on reactive oxygen species and in the experiment on reactive oxygen species (setting [6]) were −4.270 and −0.298, respectively. The results for the MTT in experiment [1] and in experiment [1] (setting [6]) were −5.432 and −2.693, respectively. Also, the Viability with C2C12 myotubes is recorded as −4.805; in the experiment with C2C12 myotubes (setting [6]) it was −2.974. Moreover, the ΔΨm is recorded as −3.726 in experiment [2] and −1.139 in experiment [2] (setting [6]). Also, the cyt c with cytochrome c was −3.201; in the experiment with cytochrome c (setting [6]) it was −3.981. The nucOX is given as −1.387 in the experiment with nuOXPHOS transcripts and −0.289 in the experiment with nuOXPHOS transcripts (setting [6]).
Consider `C[C@H](CCC(=O)O)[C@H]1CC[C@H]2[C@@H]3CC[C@H]4C[C@H](O)CC[C@]4(C)[C@H]3C[C@H](O)[C@]12C` [allodeoxycholic acid], for which the mitoOX in the experiment with mtOXPHOS transcripts (setting [5]) is given as −0.773. In addition, the GE-HTS with OXPHOS gene expression (setting [5]) is listed as −0.905. The molecule further gave an ROS in the experiment on reactive oxygen species (setting [5]) of −0.164. In experiment [1] (setting [5]), this molecule displayed an MTT of −2.126. In the experiment with C2C12 myotubes (setting [5]), this molecule registered a Viability of −1.161. This molecule also registered a ΔΨm in experiment [2] (setting [5]) of 0.404. This molecule yielded a cyt c in the experiment on cytochrome c (setting [5]) of −2.903. The molecule further registered a nucOX in the experiment with nuOXPHOS transcripts (setting [5]) of −0.903.
